These results are taken from patent publication US11149064B2, “Vasoactive polypeptides for smooth muscle relaxation” (Vanderbilt University, priority 2016, dated 2021).

Entries after “also recorded” stand apart in the source; their conditions may differ. Non-standard residues stand in square brackets, D forms with d. No end group written: not given here. *: point of attachment. Palmitoyl = CCCCCCCCCCCCCCCC(=O)*; pS = N[C@@H](COP(=O)(O)O)C(=O)O

For assay [1], the system named is rat aortic smooth muscle. In words: Vasorelaxation of pre-contracted, endothelium-denuded rat aortic rings in a muscle bath. Format: cell-based. As to conditions: for relaxation of rat aortic smooth muscle: phenylephrine-precontracted, endothelium-denuded rat aorta, escalating doses of polypeptide 0.1 to 1.0 mM (FIG. 2); for potency in vasorelaxation after chemical or formulatory modification of VASP1: compared with VASP1 (FIGS. 6 and 7). The protocol:
(§1) Freshly isolated rat aorta denuded of endothelium were suspended in a muscle bath and force generated were recorded. Phenylephrine-precontracted tissues were treated with either sodium nitroprusside (1 nM) or escalating doses of the polypeptides indicated (0.1 to 1.0 mM). Contractile response was defined by stress, which was calculated using the force generated by the tissues. [10^5 Newtons (N)/m^2]−force (g)×0.0987/area, where area is equal to the wet weight [(mg)/length (mm at maximal length)] divided by 1.055). Percent relaxation were determined as a change to the maximal phenylephrine-induced contraction. Data are reported as mean responses±standard error of the mean. n=3-17.
FIGS. 4A and B show graphs illustrating the effects of nimodipine on polypeptide induced vasorelaxation in phenylephrine precontracted rat aortic smooth muscle. Freshly isolated rat aorta denuded of endothelium were suspended in a muscle bath and force generated were recorded. Phenylephrine-precontracted tissues were treated either with escalating doses of the calcium channel blocker nimodipine (NIMO; 0.01 to 1 uM), the VASP1 polypeptide (0.1 to 1.0 mM), nimodipine (0.1 μM) followed by the VASP1 polypeptide (0.25 mM) [NIMO/VASP1], the VASP1 polypeptide (0.25 mM) followed by nimodipine (0.1 μM) [VASP1/NIMO], or simultaneous addition of nimodipine (0.1 μM) plus the VASP1 polypeptide (0.25 mM) [NIMO+VASP1]. Contractile response was defined by stress, which was calculated using the force generated by the tissues. [10^5 Newtons (N)/m^2]=force (g)×0.0987/area, where area is equal to the wet weight [(mg)/length (mm at maximal length)] divided by 1.055). (A) Percent relaxation were determined as a change to the maximal phenylephrine-induced contraction. Data are reported as mean responses±standard error of the mean. n=3-4. (B). Representative tracings of force generated in response to phenylephrine, nimodipine and the VASP1 polypeptides.
Freshly isolated rat aorta denuded of endothelium were suspended in a muscle bath and force generated were recorded. (A) Endothelin 1 (ET)-precontracted tissues were treated either with escalating doses of the calcium channel blocker nimodipine (NIMO; 0.001 to 0.1 uM), the VASP1 polypeptide (0.1 to 1.0 mM). (B) ET-precontracted tissues were treated with VASP1 polypeptide alone (0.25 mM), nimodipine alone (0.01 or 0.1 uM), nimodipine (0.01 or 0.1 uM) followed by the VASP1 polypeptide (0.25 mM), [NIMO/VASP1], the VASP1 polypeptide (0.25 mM) followed by nimodipine (0.01 or 0.1 uM), [VASP1/NIMO], or simultaneous addition of nimodipine (0.1 uM) plus the VASP1 polypeptide (0.25 mM) [NIMO+VASP1]. Contractile response was defined by stress, which was calculated using the force generated by the tissues. [10^5 Newtons (N)/m^2]=force (g)×0.0987/area, where area is equal to the wet weight [(mg)/length (mm at maximal length)] divided by 1.055). (A) Percent relaxation were determined as a change to the maximal phenylephrine-induced contraction. Data are reported as mean responses±standard error of the mean. n=2-12.
as §1, with “bath,” for “bath”, “polypeptides or polypeptide-containing nanoparticles” for “polypeptides”, “(N)/m^2]=force” for “(N)/m^2]−force”, “n=2-6.” for “n=3-17.”
Freshly isolated rat aorta denuded of endothelium were suspended in a muscle bath and force generated were recorded. […]

The test system of assay [2] is airway smooth muscle. Nature of the assay: Relaxation of carbachol-precontracted porcine bronchial rings in a muscle bath. Format: cell-based. As to conditions: polypeptides 0.1 to 1.0 mM (FIG. 8). The protocol: (§2) Bronchial rings were isolated from fresh porcine lung, suspended in a muscle bath, and force generated were recorded. Carbachol-precontracted tissues were treated with escalating doses of the polypeptides indicated (0.1 to 1.0 mM). Contractile response was defined by stress, which was calculated using the force generated by the tissues. [10^5 Newtons (N)/m^2]=force (g)×0.0987/area, where area is equal to the wet weight [(mg)/length (mm at maximal length)] divided by 1.055). Percent relaxation were determined as a change to the maximal carbachol-induced contraction. Data are reported as mean responses±standard error of the mean. n=2-4.
as §2, with “Freshly isolated porcine bronchial” for “Bronchial”, “were” for “were isolated from fresh porcine lung,”, “bath.” for “bath, and force generated were recorded.”, “with” for “with escalating doses of”, “alone (−nife) or 0.1 uM nifedipine followed by the polypeptides (+nife).” for “indicated (0.1 to 1.0 mM).”, “n=1-2.” for “n=2-4.”
Bronchial rings were suspended in the muscle bath and equilibrated for 3 hours at a basal tension of 1 gram. Rings were then contracted with the agonist carbachol (150 nM) and then relaxed with cumulative doses of the polypeptides (0.1 to 1.0 mM).
Porcine bronchial rings were suspended in the muscle bath. Tissues were treated with channel blocker alone, polypeptide alone, or in combination. The results of these study are illustrated in FIG. 9.
Rat aortae were isolated from euthanized female Sprague-Dawley rats. Porcine bronchial rings were isolated from lung obtained from euthanized female Yorkshire pigs.

[3] abbreviates: phenylephrine or endothelin-1 pre-contracted rat aortic rings.

As to “IRQTADRWRVSLDVNLTVK [SEQ ID NO: 4, peptide analogue of HSP27]”, in assay [1], the “relaxation of rat aortic smooth muscle” value was “directly cause smooth muscle relaxation”. In addition, the “relaxation of airway smooth muscle” value in assay [2] is “directly cause smooth muscle relaxation”.
Turning to “KLRKV(pS)K (KLRKV[pS]K) [SEQ ID NO: 9, control peptide without transduction domain]”, in assay [1], the “relaxation of rat aortic smooth muscle” value was “do not directly cause relaxation; also recorded: exception”.
As to “KLRKV(pS)KLTVK (KLRKV[pS]KLTVK) [SEQ ID NO: 8, phosphopeptide analogue of VASP]”, the “relaxation of rat aortic smooth muscle” value in assay [1] is “directly cause smooth muscle relaxation”. Besides, the “relaxation of airway smooth muscle” value in assay [2] is given as “directly cause smooth muscle relaxation”.
On to “YARAAARQARAA(pS)GVAVSDG (YARAAARQARAA[pS]GVAVSDG) [SEQ ID NO: 1, phosphopeptide analogue of cofilin]”, for which, in assay [1], the “relaxation of rat aortic smooth muscle” value was “directly cause smooth muscle relaxation”. For the same substance, in assay [2], the “relaxation of airway smooth muscle” value is given as “directly cause smooth muscle relaxation”.
Turning to “YARAAARQARAA(pS)GVTVSDEVI (YARAAARQARAA[pS]GVTVSDEVI) [SEQ ID NO: 2, phosphopeptide analogue of cofilin]”, the “relaxation of rat aortic smooth muscle” value in assay [1] is recorded as “directly cause smooth muscle relaxation”. Moreover, the “relaxation of airway smooth muscle” value in assay [2] is given as “directly cause smooth muscle relaxation”.
Turning to “YARAAARQARAIRQTADRWRVSLDVN [SEQ ID NO: 3, peptide analogue of HSP27]”, the “relaxation of rat aortic smooth muscle” value in assay [1] is given as “directly cause smooth muscle relaxation”. In addition, the “relaxation of airway smooth muscle” value in assay [2] is listed as “directly cause smooth muscle relaxation”.
As for “YARAAARQARAK(pS)RVLKK (YARAAARQARAK[pS]RVLKK) [SEQ ID NO: 10, control peptide]”, the entries for the “relaxation of rat aortic smooth muscle” value in assay [1] and in assay [1] (listed as scrVASP1) were “do not directly cause relaxation” and “exception”, respectively.
As for “YARAAARQARAKLRKV(pS)K (YARAAARQARAKLRKV[pS]K) [SEQ ID NO: 5, phosphopeptide analogue of VASP]”, the “vasorelaxation in combination with calcium channel blocker nimodipine” value in assay [1] (phenylephrine or endothelin-1 pre-contracted rat aortic rings, VASP1 0.25 mM with nimodipine 0.01 or 0.1 uM (FIGS. 4A-5B)) is reported as “works in concert with calcium channel blocker, nimodipine, to enhance vasorelaxation”. Moreover, the “relaxation of rat aortic smooth muscle” value in assay [1] is “directly cause smooth muscle relaxation”; in assay [1] (listed as VASP1), “sequence specific”. In addition, the “relaxation of airway smooth muscle” value in assay [2] is “directly cause smooth muscle relaxation”.
Turning to “YARAAARQARAKLRKV(pS)KQEEA (YARAAARQARAKLRKV[pS]KQEEA) [SEQ ID NO: 6, phosphopeptide analogue of VASP]”, the “relaxation of rat aortic smooth muscle” value in assay [1] was “directly cause smooth muscle relaxation”. Moreover, the “relaxation of airway smooth muscle” value in assay [2] is listed as “directly cause smooth muscle relaxation”.
For “YARAAARQARAKLRKV(pS)KQEEASG (YARAAARQARAKLRKV[pS]KQEEASG) [SEQ ID NO: 7, phosphopeptide analogue of VASP]”, the “relaxation of rat aortic smooth muscle” value in assay [1] is reported as “directly cause smooth muscle relaxation”. The “relaxation of airway smooth muscle” value in assay [2] was “directly cause smooth muscle relaxation”.
“YARAAARQARA{K(palm)}GGKLRKV(pS)K (YARAAARQARAK(Palmitoyl)GGKLRKV[pS]K) [SEQ ID NO: 12]”: in assay [1] (setting [3]), the “potency in vasorelaxation after chemical or formulatory modification of VASP1” value was “directly cause smooth muscle relaxation with enhanced potency”.
On the same count and under the same terms, then “YARAAARQARA{K(palm)}LRKV(pS)K (YARAAARQARAK(Palmitoyl)LRKV[pS]K) [SEQ ID NO: 11]”, with “directly cause smooth muscle relaxation with enhanced potency”.
